Test results taken from ChEMBL document CHEMBL1201862, “PubChem BioAssay data set” (2004).
Calls of active or inactive are those of the source. Cut-off read from the data, not from the text of the source, for most assays here: actives have a measured EC50 and inactives only a lower limit.

Assays:
[1] = target: T1, High affinity choline transporter 1 (Homo sapiens, UniProt Q9GZV3); test: human choline transporter blockers, potency – cell-based, 5-point CRC, membrane potential dye, dose response (AID 504840); format: functional
T1 sequence (Q9GZV3 whole entry): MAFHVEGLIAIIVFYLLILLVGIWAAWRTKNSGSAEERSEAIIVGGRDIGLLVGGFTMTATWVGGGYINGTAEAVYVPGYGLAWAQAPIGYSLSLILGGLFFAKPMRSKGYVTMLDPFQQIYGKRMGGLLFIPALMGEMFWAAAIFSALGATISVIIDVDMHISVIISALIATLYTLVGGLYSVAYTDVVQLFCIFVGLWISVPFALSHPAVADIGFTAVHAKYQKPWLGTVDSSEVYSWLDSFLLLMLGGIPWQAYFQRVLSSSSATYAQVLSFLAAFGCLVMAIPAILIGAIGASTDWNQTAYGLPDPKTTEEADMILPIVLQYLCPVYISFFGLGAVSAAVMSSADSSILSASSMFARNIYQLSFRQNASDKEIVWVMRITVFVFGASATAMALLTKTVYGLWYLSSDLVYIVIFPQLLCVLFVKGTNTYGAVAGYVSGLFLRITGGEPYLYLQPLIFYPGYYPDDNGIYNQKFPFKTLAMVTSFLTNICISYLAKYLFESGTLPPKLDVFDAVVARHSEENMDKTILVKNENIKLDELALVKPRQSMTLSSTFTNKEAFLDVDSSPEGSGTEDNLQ

[2] = Luminescence Cell-Based Dose Response HTS to Identify Activators of Luciferase Translation or Activity in H4 […] Cells. [Related pubchem assays: 1829 (Project Summary), 1814 (Primary HTS)]; format: functional
[3] = Luminescence Cell-Based Dose Confirmation HTS to Identify Activators of 5'UTR Stem-Loop Driven Alpha-Synuclein mRNA Translation in H4 Neuroglioblastoma Cells. [Related pubchem assays: 1829 (Project Summary), 1814 (Primary HTS)]; format: functional
H4 = test: Luminescence Cell-Based Dose Response HTS to Identify Activators of 5'UTR Stem-Loop Driven Prion Protein mRNA Translation in H4 Neuroglioblastoma Cells. [Related pubchem assays: 1829 (Project Summary), 1814 (Primary HTS)]; format: functional; settings: Homo sapiens
Caspase-6 = target: T2, Caspase-6 (Homo sapiens, UniProt P55212); test: inhibition of CASP6 peptide cleavage – biochemical, VEID-R110 fluorescence, cherry-pick, dose response (AID 720632)
T2 sequence (P55212 whole entry): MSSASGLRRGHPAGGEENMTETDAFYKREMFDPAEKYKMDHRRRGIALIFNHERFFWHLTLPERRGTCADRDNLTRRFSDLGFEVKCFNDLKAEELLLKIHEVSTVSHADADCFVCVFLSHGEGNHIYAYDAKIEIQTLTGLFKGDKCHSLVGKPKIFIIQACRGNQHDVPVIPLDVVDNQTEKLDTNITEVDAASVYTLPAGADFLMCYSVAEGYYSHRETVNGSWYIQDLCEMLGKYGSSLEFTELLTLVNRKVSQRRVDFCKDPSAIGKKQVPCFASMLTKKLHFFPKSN

BJ [4] = test: BJ-TERT-LT-ST fibroblast viability loss – cell-based, RAS-independent, luminescence, dose response (AID 1935); format: functional; settings: Homo sapiens;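 note: BJ fibroblasts immortalized with TERT plus LT and ST oncogenes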
BJ [5] = test: BJ-TERT fibroblast viability loss – cell-based, RAS-independent, luminescence, dose response (AID 1933); format: functional; settings: Homo sapiens
[6] = DRD fibroblast viability loss – cell-based, non-viral oncogenic, luminescence, dose response (AID 1934); format: functional; settings: Homo sapiens
BJ [7] = test: cells; format: functional, cell-based; settings: Homo sapiens
[8] = target: Voltage-dependent T-type calcium channel subunit alpha-1H (Homo sapiens, UniProt O95180); format: functional;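 note: channel activity triggered by adding a high calcium stimulation buffer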
Sequence of Voltage-dependent T-type calcium channel subunit alpha-1H (O95180 whole entry): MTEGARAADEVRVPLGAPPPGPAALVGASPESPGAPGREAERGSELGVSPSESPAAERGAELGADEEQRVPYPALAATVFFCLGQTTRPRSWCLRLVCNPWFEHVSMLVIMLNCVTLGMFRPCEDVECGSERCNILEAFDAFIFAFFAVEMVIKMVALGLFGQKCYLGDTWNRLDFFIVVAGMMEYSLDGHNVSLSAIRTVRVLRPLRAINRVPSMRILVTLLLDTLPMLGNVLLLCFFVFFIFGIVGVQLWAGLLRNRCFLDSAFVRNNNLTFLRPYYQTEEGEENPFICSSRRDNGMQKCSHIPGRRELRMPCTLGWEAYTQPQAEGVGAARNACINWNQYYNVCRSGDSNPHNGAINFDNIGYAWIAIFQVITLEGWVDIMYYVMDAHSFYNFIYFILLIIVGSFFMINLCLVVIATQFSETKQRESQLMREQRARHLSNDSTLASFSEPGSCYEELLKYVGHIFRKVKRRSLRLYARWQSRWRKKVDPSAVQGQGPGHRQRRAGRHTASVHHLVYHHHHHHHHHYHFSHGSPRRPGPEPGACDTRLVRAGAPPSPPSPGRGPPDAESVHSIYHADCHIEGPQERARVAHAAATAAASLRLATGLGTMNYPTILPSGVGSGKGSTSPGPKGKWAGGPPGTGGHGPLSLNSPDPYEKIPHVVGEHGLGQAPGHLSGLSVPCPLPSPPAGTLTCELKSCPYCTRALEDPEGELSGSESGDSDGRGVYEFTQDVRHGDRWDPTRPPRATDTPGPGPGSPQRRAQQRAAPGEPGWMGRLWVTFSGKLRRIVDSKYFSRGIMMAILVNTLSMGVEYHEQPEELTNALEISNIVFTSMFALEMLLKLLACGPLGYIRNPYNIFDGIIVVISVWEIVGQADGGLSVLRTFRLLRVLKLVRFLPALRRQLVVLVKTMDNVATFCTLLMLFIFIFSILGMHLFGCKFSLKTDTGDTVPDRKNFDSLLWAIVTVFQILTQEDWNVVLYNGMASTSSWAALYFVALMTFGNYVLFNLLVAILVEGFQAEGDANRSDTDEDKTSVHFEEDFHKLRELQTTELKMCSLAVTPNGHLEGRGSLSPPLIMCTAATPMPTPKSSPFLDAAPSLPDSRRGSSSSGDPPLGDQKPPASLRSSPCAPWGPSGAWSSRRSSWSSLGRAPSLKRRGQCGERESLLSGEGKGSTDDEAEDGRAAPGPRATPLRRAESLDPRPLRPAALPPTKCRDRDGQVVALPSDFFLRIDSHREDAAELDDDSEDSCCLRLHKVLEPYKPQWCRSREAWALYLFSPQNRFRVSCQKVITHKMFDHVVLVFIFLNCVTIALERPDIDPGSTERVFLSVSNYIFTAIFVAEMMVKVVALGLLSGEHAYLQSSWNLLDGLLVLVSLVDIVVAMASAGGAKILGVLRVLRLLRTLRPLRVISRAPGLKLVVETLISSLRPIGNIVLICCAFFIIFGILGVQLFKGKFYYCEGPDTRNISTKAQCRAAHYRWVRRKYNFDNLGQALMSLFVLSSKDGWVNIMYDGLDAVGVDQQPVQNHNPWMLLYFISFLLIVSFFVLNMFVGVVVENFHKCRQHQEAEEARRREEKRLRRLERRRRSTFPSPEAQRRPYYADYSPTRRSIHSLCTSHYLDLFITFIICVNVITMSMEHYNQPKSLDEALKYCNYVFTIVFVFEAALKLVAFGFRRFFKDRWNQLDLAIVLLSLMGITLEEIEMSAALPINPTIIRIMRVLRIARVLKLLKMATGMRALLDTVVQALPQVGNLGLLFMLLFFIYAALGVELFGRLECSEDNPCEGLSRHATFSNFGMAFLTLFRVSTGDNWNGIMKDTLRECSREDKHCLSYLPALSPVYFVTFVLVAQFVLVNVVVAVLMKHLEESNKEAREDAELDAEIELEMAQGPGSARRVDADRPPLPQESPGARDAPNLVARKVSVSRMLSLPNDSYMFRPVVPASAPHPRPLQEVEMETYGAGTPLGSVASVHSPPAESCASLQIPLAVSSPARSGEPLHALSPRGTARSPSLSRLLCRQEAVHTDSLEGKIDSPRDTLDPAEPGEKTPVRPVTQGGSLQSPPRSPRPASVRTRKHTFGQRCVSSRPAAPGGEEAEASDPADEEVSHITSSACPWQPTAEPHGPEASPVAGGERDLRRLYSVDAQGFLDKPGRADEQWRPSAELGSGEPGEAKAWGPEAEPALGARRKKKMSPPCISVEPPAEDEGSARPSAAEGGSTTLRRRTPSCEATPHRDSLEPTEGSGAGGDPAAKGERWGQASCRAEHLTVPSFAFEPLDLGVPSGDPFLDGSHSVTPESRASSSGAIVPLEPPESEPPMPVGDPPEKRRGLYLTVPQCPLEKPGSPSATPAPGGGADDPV

[9] = loss of viability in HepG2 cells – cell-based, CellTiter-Glo, cherry-picked, cytotoxicity control for Shn3 inhibitor project, dose response (AID 624134); format: functional
[10] = non-specific 3'UTR reporter inhibition in Clone20-Shn3RL – cell-based, Renilla luciferase, cherry-picked, counter-screen for Shn3 inhibitor project, dose response (AID 624133); format: functional
[11] = reduction of Shn3 3'UTR-driven luciferase in osteoblasts – cell-based, Clone20 osteoblasts, firefly luciferase, cherry-picked, dose response (AID 624132); format: functional;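 note: firefly luciferase luminescence from reporter carrying the Shn3 3'UTR in osteoblasts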
[12] = NIH-3T3 fibroblast cytotoxicity, dose response, cytotoxicity control, cell-based, fluorescence, Alamar Blue, secondary assay (AID 2327); format: functional;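 note: NIH-3T3 mouse fibroblasts cultured with fluconazole at 8 µg/mL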
[13] = fluconazole-exposed Candida albicans growth modulators – fluorescence, retest, confirmation (AID 2467); format: functional, cell-based
[14] = target: Heat shock protein HSP 90-alpha (Homo sapiens, UniProt P07900); format: functional, organism-based
[15] = NIH3T3 cell viability loss – ATP luminescence, mouse fibroblasts, counter-screen, dose response (AID 2010); format: functional, cell-based;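 note: cells exposed to compound for about 90 hours before reading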
Fatty acid synthase = Fatty acid synthase (Homo sapiens, UniProt P49327); test: inhibition of human FAS-TE enzyme activity – biochemical, kinetic fluorescence intensity, dose response (AID 624326); format: functional;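 note: rate of fluorescence rise from hydrolysis of a fluorogenic O-methyl fluorescein ester substrate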
Sequence of Fatty acid synthase (P49327 whole entry): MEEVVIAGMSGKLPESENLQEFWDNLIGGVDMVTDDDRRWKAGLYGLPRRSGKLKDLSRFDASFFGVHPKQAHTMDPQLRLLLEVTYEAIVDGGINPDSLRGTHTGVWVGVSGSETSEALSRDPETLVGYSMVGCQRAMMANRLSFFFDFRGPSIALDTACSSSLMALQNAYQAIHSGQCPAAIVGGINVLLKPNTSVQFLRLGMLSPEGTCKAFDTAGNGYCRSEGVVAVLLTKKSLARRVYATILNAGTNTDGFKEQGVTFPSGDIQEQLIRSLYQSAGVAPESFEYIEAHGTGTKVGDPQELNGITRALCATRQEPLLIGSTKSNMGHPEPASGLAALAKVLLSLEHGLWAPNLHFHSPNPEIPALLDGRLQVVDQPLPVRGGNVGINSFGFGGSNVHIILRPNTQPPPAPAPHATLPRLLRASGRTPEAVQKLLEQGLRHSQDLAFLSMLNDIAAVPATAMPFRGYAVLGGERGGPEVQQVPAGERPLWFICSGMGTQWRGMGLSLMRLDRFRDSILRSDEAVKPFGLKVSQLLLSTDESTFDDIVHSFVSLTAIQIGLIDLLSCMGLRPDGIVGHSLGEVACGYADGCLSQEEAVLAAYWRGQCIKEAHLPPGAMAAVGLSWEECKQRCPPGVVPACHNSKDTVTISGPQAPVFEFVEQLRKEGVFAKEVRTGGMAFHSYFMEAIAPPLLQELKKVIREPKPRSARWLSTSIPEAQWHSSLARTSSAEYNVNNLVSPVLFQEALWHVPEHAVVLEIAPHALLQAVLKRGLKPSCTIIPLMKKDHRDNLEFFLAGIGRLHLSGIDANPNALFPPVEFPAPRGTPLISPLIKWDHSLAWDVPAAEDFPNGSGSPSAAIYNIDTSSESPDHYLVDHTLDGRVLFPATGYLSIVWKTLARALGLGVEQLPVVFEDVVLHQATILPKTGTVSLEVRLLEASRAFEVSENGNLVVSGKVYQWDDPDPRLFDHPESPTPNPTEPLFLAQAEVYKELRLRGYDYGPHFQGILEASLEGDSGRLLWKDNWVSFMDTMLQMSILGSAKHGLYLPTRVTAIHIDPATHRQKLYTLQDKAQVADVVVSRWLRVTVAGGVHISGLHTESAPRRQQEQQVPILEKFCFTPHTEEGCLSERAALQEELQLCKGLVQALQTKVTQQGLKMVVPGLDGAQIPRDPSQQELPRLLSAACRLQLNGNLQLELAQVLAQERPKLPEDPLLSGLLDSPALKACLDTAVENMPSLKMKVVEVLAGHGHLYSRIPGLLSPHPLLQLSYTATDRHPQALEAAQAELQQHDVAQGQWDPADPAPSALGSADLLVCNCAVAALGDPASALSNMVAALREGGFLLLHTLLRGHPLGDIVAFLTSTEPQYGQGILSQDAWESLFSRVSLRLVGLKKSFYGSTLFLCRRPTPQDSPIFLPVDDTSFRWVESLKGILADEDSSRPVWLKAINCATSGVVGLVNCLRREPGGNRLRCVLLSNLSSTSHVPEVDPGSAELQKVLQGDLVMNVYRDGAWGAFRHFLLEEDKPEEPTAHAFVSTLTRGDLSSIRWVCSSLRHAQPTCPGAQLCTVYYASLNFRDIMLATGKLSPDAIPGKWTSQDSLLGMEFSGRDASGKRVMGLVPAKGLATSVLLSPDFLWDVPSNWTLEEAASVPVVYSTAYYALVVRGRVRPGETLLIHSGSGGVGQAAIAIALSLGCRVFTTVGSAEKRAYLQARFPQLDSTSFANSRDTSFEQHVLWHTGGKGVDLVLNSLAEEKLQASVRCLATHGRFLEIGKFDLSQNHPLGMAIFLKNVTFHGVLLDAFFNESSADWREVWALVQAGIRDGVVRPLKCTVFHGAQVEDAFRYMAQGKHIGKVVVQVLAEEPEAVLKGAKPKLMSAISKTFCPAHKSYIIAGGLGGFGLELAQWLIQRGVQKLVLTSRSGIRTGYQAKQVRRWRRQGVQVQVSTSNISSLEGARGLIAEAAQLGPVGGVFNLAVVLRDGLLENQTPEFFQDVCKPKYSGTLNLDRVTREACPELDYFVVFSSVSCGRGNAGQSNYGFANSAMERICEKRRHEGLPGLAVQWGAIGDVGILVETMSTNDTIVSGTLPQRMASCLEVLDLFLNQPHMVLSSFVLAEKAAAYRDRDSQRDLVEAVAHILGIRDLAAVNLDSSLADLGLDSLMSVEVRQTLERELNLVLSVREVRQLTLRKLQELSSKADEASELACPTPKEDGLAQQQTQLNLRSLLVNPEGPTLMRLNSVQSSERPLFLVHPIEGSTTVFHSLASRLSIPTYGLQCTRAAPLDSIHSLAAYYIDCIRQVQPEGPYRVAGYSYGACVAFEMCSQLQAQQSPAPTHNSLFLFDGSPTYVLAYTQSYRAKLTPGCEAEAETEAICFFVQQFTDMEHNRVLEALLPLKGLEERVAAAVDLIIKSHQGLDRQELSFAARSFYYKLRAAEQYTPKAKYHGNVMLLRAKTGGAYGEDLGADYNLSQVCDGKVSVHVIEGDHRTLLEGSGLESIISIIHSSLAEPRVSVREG

[16] = Trypanosoma cruzi growth suppression in host cells – NIH3T3 host cells, beta-gal luminescence, confirmation (AID 2044); format: functional, cell-based;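 note: intracellular parasites grown in NIH/3T3 mouse fibroblasts as host cells; luminescent beta-galactosidase reporter signal from transgenic T. cruzi replicating inside host cells; inhibitors lower the luminescence signal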
[17] = viability of uninfected HEp-2 cells – cell-based, HTS, cytotoxicity control for RSV inhibitor project, dose response (AID 2410); format: functional; settings: human respiratory syncytial virus
Streptokinase A = target: T3, Streptokinase A (Streptococcus pyogenes serotype M1, UniProt P10520); test: viability-normalized secreted streptokinase activity reduction – plasminogen activation absorbance, OD405, dose response (AID 1914); format: functional, Streptococcus pyogenes M1 GAS;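 note: secreted streptokinase activity via plasminogen activation per viability signal from cell pellet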
T3 sequence (P10520 whole entry): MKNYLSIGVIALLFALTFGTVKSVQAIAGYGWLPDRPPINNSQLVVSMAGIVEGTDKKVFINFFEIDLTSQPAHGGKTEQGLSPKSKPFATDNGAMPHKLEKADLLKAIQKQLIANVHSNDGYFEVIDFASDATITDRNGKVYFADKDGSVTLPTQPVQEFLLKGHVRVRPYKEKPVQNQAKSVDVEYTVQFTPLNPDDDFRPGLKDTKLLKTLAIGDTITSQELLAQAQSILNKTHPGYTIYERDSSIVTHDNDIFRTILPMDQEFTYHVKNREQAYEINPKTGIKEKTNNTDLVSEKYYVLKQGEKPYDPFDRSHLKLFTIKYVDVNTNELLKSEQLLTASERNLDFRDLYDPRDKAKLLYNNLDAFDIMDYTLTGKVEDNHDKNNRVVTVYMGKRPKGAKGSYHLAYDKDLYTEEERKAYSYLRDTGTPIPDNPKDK

Streptococcus = test: GAS UMAA2166 growth inhibition – luminescence, BacTiterGlo, counter-screen for streptokinase expression inhibitor project, dose response (AID 1915); format: functional, organism-based;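 note: potency for reduction of bacterial viability or growth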
[18] = test system: Streptococcus sp. 'group A'; test: Streptococcus pyogenes SK(-)GAS viability under kanamycin – luminescence, BacTiterGlo, confirmation, counter-screen for streptokinase expression inhibitor project, dose response (AID 1900); format: functional, organism-based
[19] = toxicity toward HepG2 liver cells – cell-based, plate reader, cherry-pick, antagonist series, cytotoxicity control, dose response (AID 743416); format: functional
[20] = target: T4, Microphthalmia-associated transcription factor (Homo sapiens, UniProt O75030); test: reducers of TRPM1 reporter luminescence, concentration series – cell-based, SK-MEL-5, cherry-picked, set 3, MITF inhibitor project, dose response (AID 493073); format: functional;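 note: SK-MEL-5 melanoma cells with luciferase driven by the MITF target TRPM1 promoter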
T4 sequence (O75030 whole entry): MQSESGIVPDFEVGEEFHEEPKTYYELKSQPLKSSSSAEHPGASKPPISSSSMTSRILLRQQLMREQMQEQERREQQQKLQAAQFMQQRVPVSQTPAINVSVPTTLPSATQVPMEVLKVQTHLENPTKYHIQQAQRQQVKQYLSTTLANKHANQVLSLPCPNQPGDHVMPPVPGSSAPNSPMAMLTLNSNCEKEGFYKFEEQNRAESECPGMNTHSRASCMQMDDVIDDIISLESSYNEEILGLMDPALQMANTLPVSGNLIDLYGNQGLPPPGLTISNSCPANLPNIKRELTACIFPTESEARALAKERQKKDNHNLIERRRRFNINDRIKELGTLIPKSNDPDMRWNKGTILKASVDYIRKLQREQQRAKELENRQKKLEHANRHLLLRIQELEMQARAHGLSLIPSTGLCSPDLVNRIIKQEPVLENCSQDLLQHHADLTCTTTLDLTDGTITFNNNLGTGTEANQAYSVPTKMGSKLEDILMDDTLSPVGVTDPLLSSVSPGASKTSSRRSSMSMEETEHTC

## CCC(NCCc1ccccc1)=C1C(=O)N(C)C(=O)N(C)C1=O
[1]
  IC50: 13.8 µM (active)

## CC1CCC(NC(=O)N(CCCl)N=O)CC1 (configuration not stated) [SEMUSTINE]
[2]
  EC50: 24 µM (active)
[3]
  EC50: 5.98 µM (active)
H4
  EC50: 16.2 µM (active)

## O=C(COC(=O)c1ccc([N+](=O)[O-])o1)Nc1ncc(Cl)cc1Cl
Caspase-6
  AC50: 28.3 µM (active)

## CC(=O)c1ccc(Oc2ccc(C(=O)c3ccc(C)c(C)c3)cc2[N+](=O)[O-])cc1
BJ [4]
  EC50: > 150 µM (not active)
BJ [5]
  EC50: 26.4 µM (active)
[6]
  EC50: > 150 µM (inconclusive)
BJ [7]
  EC50: > 150 µM (not active)

## CC(NC(=O)CCC(=O)NC(C)C1COc2ccccc2O1)C1COc2ccccc2O1 (configuration not stated)
[8]
  EC50: 4.07 µM (active)

## Cc1cc2c(cc(C(=O)N3CCC(C(=O)NC4CCCC4)CC3)n2Cc2c(F)cccc2Cl)o1
[9]
  AC50: 49.4 µM (active)
[10]
  AC50: 10 µM (active)
[11]
  AC50: 4.81 µM (active)

## O=CNCCCc1nc2ccccc2n1Cc1cccc2ccccc12
[12]
  EC50: > 150 µM (inactive)
[13]
  EC50: 4.77 µM (active)

## O=C(Nc1ccc(S(=O)(=O)NC2=NCCCCC2)cc1)c1ccc(C(F)(F)F)cc1
[1]
  IC50: 11.8 µM (active)

## O=C(C=Cc1cccc(O)c1)c1ccccc1O
[14]
  AC50: 2.81 µM (active)

## Cc1ccc(-c2nnc(SCC(C)C)n2C)cc1
[2]
  EC50: 88.6 µM (active)
[3]
  EC50: 11.5 µM (active)
H4
  EC50: 10.1 µM (active)

## COc1ccc(-c2noc(CCC(=O)N3CCN(c4cc(C)ccc4C)CC3)n2)cc1
[8]
  EC50: 3.63 µM (active)

## CCSc1nc2ccccc2n1CCOc1ccccc1
[8]
  EC50: 18.2 µM (active)

## CC(CCc1ccccc1)NC(=O)c1ccc(Br)cc1 (configuration not stated)
[14]
  AC50: 2.6 µM (active)

## Cc1cc(-c2ccccc2)n(-c2ccc(C(=O)N3CCN(c4ncccn4)CC3)cc2)n1
[1]
  IC50: 8.32 µM (active)

## O=C(Nc1cccc(NC(=O)c2ccc(-c3ccc(Br)cc3)o2)c1)c1ccccc1
[8]
  EC50: 19.1 µM (active)

## Cc1cc(C)c(NS(=O)(=O)c2cccc3cccnc23)c(C)c1
[12]
  EC50: 38.5 µM (active)
[13]
  EC50: > 38 µM (not active)

## O=C(Nc1cccc(C(=O)N2CCCCC2)c1)c1ccccc1Br
[1]
  IC50: 16.8 µM (active)

## O=C(NCc1ccco1)c1cc2c(s1)CCCCC2
[2]
  EC50: 41.9 µM (active)
[3]
  EC50: 34 µM (active)
H4
  EC50: > 120 µM (not active)

## O=S(=O)(c1ccc(-c2csc(-c3cccnc3)n2)cc1)N1CCCCC1
[15]
  EC50: > 30 µM (not active)
Fatty acid synthase
  IC50: 3.65 µM (active)
[16]
  EC50: 1.89 µM (active)
[17]
  CC50: 40.1 µM (active)

## [O-][n+]1c2ccccc2[n+]([O-])c2cc(O)ccc21
Streptokinase A
  EC50: > 150 µM (not active)
Streptococcus
  EC50: 17.3 µM (active)
Caspase-6
  AC50: 6.89 µM (active)
[18]
  EC50: 7.97 µM (active)

## Cc1ccc(C(=O)Cn2c(-c3ccccc3)noc2=O)cc1
[2]
  EC50: 12.4 µM (active)
[3]
  EC50: 13.1 µM (active)
H4
  EC50: 15 µM (active)

## CCN(Cc1ccncc1)C(=O)c1cc(COc2ccc(F)cc2Cl)on1
[1]
  IC50: 13.2 µM (active)

## Cc1cc(Sc2nc(N)ncc2[N+](=O)[O-])ncn1
[12]
  EC50: 4.19 µM (inconclusive)
[13]
  EC50: 0.746 µM (active)

## CN1CCC(=NNC(=O)C(=O)Nc2ccc(F)cc2)CC1
[2]
  EC50: 23.6 µM (active)
[3]
  EC50: 14.5 µM (active)
H4
  EC50: 15 µM (active)

## O=C(Nc1cc([N+](=O)[O-])ccc1O)c1ccc2c(c1)C(=O)N(Cc1ccco1)C2=O
Caspase-6
  AC50: 18.5 µM (active)

## Cc1nc2c(-c3ccc(F)cc3)c(C)nn2c(C)c1CCC(=O)N1CCN(c2ccc(F)cc2)CC1
[8]
  EC50: 5.21 µM (active)

## Cc1ccc(S(=O)(=O)N2CCCc3nc(-c4ccc(F)cc4)ccc32)cc1
[19]
  AC50: > 52 µM (inactive)

## CC(C)OC(=O)c1cccc(-c2ccc(C=O)o2)c1
[1]
  IC50: 14.5 µM (active)

## COc1ccc(Cl)cc1N=C(N)Nc1nc(O)cc(CSc2ccc(C)cc2)n1
[9]
  AC50: > 70 µM (inactive)
[10]
  AC50: 21.5 µM (active)
[11]
  AC50: 1.82 µM (active)

## Cc1ccc(C(CC(=O)NCc2ccco2)c2ccc(OC(C)C)cc2)cc1 (configuration not stated)
[8]
  EC50: 15.9 µM (active)

## O=C(O)CSc1nc2sc3c(c2c(=O)n1Cc1ccccc1)CCCCC3
[2]
  EC50: 15.6 µM (active)
[3]
  EC50: > 60 µM (not active)
H4
  EC50: 16.4 µM (active)

## O=C(OCC(=O)N1CCCC1=O)c1nc(Cl)c(Cl)c(Cl)c1Cl
[2]
  EC50: > 120 µM (not active)
[3]
  EC50: 14.4 µM (active)
H4
  EC50: > 120 µM (not active)

## COc1ccc(-n2c(C)cc(/C=C/c3nc(O)c([N+](=O)[O-])c(O)n3)c2C)cc1
Caspase-6
  AC50: 18.8 µM (active)

## CCCCC/C=C\C/C=C\C/C=C\CCCCC(=O)O [GAMOLENIC ACID]
Caspase-6
  AC50: 0.505 µM (active)

## NC(S)=NNc1cccc(Cl)c1
[12]
  EC50: > 160 µM (inactive)
[13]
  EC50: > 38 µM (not active)

## O=C(c1ccc([N+](=O)[O-])s1)N1CCN(c2ccccn2)CC1
[20]
  AC50: 12.2 µM (active)
